Test results from patent publication US20260250322A1, “NEW PEPTIDES AS SELECTIVE IL-23 RECEPTOR INHIBITORS” (SANOFI, priority 2023, published 2026).
Numbered stars: 1 amine (or outer) side, 2 acyl side, 3 side chain; on linkers, the order of the positions; unused ones are H or OH. Bridge positions count the residues as written; N and C are the ends. Square brackets hold non-standard residues; d marks the D form. Peptide text beside a SMILES is read from it. Tyr(Me) = Yme = 4-methoxy-L-phenylalanine (O-methyl-tyrosine), COc1ccc(C[C@H](N[*:1])C(=O)[*:2])cc1; Trp(1-Me) = Cn1cc(C[C@H](N)C(=O)O)c2ccccc21; 1Nal = N[C@@H](Cc1cccc2ccccc12)C(=O)O; 2Nal = N[C@@H](Cc1ccc2ccccc2c1)C(=O)O; dOrn = NCCC[C@@H](N)C(=O)O; Orn = NCCC[C@H](N)C(=O)O; Thp = NC1(C(=O)O)CCOCC1; Aib = CC(C)(N)C(=O)O; Ahx = NCCCCCC(=O)O; Ava = NCCCCC(=O)O

T1: human IL-23R (Homo sapiens, UniProt Q5VWK5)
T1 sequence (Q5VWK5 24-355 limits assumed): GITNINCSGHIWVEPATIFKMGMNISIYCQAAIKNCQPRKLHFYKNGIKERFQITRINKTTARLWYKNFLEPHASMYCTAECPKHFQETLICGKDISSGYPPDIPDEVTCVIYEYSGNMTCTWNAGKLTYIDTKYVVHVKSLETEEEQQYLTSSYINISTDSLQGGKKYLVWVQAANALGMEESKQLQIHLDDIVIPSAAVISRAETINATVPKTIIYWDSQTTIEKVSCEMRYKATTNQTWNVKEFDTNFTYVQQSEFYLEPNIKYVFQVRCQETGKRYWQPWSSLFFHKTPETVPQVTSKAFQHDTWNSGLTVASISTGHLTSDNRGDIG

T2: IL-23 receptor on the surface of HEK-Blue IL-23 cells (UniProt Q5VWK5 24-629, limits assumed)
T2 sequence (looked up): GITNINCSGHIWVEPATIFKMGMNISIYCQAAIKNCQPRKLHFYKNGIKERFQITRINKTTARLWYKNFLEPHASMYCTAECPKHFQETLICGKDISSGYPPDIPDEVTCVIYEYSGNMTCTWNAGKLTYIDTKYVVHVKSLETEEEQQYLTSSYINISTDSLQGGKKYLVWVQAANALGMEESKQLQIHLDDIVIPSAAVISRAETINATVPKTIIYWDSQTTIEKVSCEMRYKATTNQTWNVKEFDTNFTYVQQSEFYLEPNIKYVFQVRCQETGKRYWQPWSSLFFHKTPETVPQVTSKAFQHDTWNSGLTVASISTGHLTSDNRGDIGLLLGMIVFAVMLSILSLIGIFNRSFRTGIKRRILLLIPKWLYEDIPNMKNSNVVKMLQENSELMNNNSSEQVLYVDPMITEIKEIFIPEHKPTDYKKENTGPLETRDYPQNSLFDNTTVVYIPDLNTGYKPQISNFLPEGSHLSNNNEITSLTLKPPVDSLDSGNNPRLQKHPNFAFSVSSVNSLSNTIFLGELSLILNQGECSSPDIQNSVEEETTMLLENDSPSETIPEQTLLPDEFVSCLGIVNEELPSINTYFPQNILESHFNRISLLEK

B1: peptide compound SEQ ID NO: 1 (peptide)
peptide: Ac-[dK]NTWQL[Tyr(Me)][2Nal][Aib]DNN-NH2
modifications: lactam 1-10
SMILES: COc1ccc(C[C@@H]2NC(=O)[C@H](CC(C)C)NC(=O)[C@H](CCC(N)=O)NC(=O)[C@H](Cc3c[nH]c4ccccc34)NC(=O)[C@H]([C@@H](C)O)NC(=O)[C@H](CC(N)=O)NC(=O)[C@H](NC(C)=O)CCCCNC(=O)C[C@@H](C(=O)N[C@@H](CC(N)=O)C(=O)N[C@@H](CC(N)=O)C(N)=O)NC(=O)C(C)(C)NC(=O)[C@H](Cc3ccc4ccccc4c3)NC2=O)cc1

molecular target: T1, human IL-23R; test: Human ELISA IL-23/IL-23R binding inhibition; settings: human IL-23 coated, recombinant human IL-23R-Fc chimera
Method: Antagonism of peptide compounds for human interleukin-23 receptor inhibitors, was determined by an ELISA assay.
A 384-well plate was coated with 50 μl/well of human IL-23 at a final concentration of 1 μg/ml and incubated overnight at 4° C. The wells were washed 3 times with 80 μl wash buffer and blocked with 80 μl blocking buffer for 60 minutes at room temperature and washed again. 20 μl of serially diluted test peptides was added to each well and subsequently 20 μl of recombinant human IL-23R-Fc chimera at final concentration of 0.1 μg/ml. The plate was incubated for 60 minutes at room temperature. After the wells were washed, bound IL-23R-Fc was detected with goat anti-hu-lgG1-HRP antibody. Signals were visualized with QuantaBlu Fluorogenic Peroxidase Substrate.

Molecule	IC50 [nM]
COc1ccc(C[C@@H]2NC(=O)[C@H](C)NC(=O)[C@H](CCC(N)=O)NC(=O)[C@H](Cc3c[nH]c4ccccc34)NC(=O)[C@H]([C@@H](C)O)NC(=O)[C@H](CC(N)=O)NC(=O)[C@H](NC(C)=O)CCCCNC(=O)C[C@@H](C(=O)N[C@@H](C)C(=O)N[C@@H](CC(N)=O)C(N)=O)NC(=O)C(C)(C)NC(=O)[C@H](Cc3ccc4ccccc4c3)NC2=O)cc1 [compound 49] (Ac-[dK]NTWQAY(Me)[2Nal][Aib]DAN-NH2; lactam 1-10)	3.13
COc1ccc(C[C@@H]2NC(=O)[C@H](CCCNC(=N)N)NC(=O)[C@H](CCC(N)=O)NC(=O)[C@H](Cc3cn(C)c4ccccc34)NC(=O)[C@H]([C@@H](C)O)NC(=O)[C@H](CC(N)=O)NC(=O)[C@@H](NC(C)=O)CC(=O)NCCC[C@@H](C(=O)N[C@@H](CC(N)=O)C(=O)N[C@@H](CC(N)=O)C(N)=O)NC(=O)C(C)(C)NC(=O)[C@H](Cc3ccc4ccccc4c3)NC2=O)cc1 [compound 34] (Ac-DNT[Trp(1-Me)]QRY(Me)[2Nal][Aib][Orn]NN-NH2; lactam 1-10)	2.16
COc1ccc(C[C@@H]2NC(=O)[C@H](CCCNC(=N)N)NC(=O)[C@H](CCC(N)=O)NC(=O)[C@H](Cc3c[nH]c4ccccc34)NC(=O)[C@H](Cc3c[nH]cn3)NC(=O)[C@H](CC(N)=O)NC(=O)[C@@H](NC(C)=O)CCCCNC(=O)C[C@@H](C(=O)N[C@@H](CC(N)=O)C(=O)N[C@@H](CC(N)=O)C(N)=O)NC(=O)C3(CCOCC3)NC(=O)[C@H](Cc3ccc4ccccc4c3)NC2=O)cc1 [compound 42] (Ac-KNHWQRY(Me)[2Nal][Thp]DNN-NH2; lactam 1-10)	18.1
COc1ccc(C[C@@H]2NC(=O)[C@H](C)NC(=O)[C@H](CCC(N)=O)NC(=O)[C@H](Cc3c[nH]c4ccccc34)NC(=O)[C@H]([C@@H](C)O)NC(=O)[C@H](CC(N)=O)NC(=O)[C@H](NC(C)=O)CCCCNC(=O)C[C@@H](C(=O)N[C@@H](CC(N)=O)C(=O)N[C@@H](C)C(N)=O)NC(=O)C(C)(C)NC(=O)[C@H](Cc3ccc4ccccc4c3)NC2=O)cc1 [compound 48] (Ac-[dK]NTWQAY(Me)[2Nal][Aib]DNA-NH2; lactam 1-10)	2.06
COc1ccc(C[C@@H]2NC(=O)[C@H](C)NC(=O)[C@H](CCC(N)=O)NC(=O)[C@H](Cc3c[nH]c4ccccc34)NC(=O)[C@H]([C@@H](C)O)NC(=O)[C@H](CCCNC(=N)N)NC(=O)[C@H](NC(C)=O)CCCCNC(=O)C[C@@H](C(=O)N[C@@H](CC(N)=O)C(=O)N[C@@H](CC(N)=O)C(N)=O)NC(=O)C(C)(C)NC(=O)[C@H](Cc3ccc4ccccc4c3)NC2=O)cc1 [compound 45] (Ac-[dK]RTWQAY(Me)[2Nal][Aib]DNN-NH2; lactam 1-10)	0.96
COc1ccc(C[C@@H]2NC(=O)[C@H](C)NC(=O)[C@H](CCC(N)=O)NC(=O)[C@H](Cc3c[nH]c4ccccc34)NC(=O)[C@H]([C@@H](C)O)NC(=O)[C@H](CC(N)=O)NC(=O)CCCCNC(=O)C[C@@H](C(=O)N[C@@H](CC(N)=O)C(=O)N[C@@H](CC(N)=O)C(N)=O)NC(=O)C(C)(C)NC(=O)[C@H](Cc3ccc4ccccc4c3)NC2=O)cc1 [compound 44] ([Ava]NTWQAY(Me)[2Nal][Aib]DNN-NH2; lactam N-10)	4.66
COc1ccc(C[C@@H]2NC(=O)[C@H](CCCNC(=N)N)NC(=O)[C@H](CCC(N)=O)NC(=O)[C@H](Cc3cn(C)c4ccccc34)NC(=O)[C@H]([C@@H](C)O)NC(=O)[C@H](CC(N)=O)NC(=O)[C@@H](NC(C)=O)CCC(=O)NCCC[C@@H](C(=O)N[C@@H](CC(N)=O)C(=O)N[C@@H](CC(N)=O)C(N)=O)NC(=O)C(C)(C)NC(=O)[C@H](Cc3ccc4ccccc4c3)NC2=O)cc1 [compound 35] (Ac-ENT[Trp(1-Me)]QRY(Me)[2Nal][Aib][Orn]NN-NH2; lactam 1-10)	4.55
COc1ccc(C[C@@H]2NC(=O)[C@H](C)NC(=O)[C@H](CCC(N)=O)NC(=O)[C@H](Cc3c[nH]c4ccccc34)NC(=O)[C@H]([C@@H](C)O)NC(=O)[C@H](CC(N)=O)NC(=O)CCCCCNC(=O)C[C@@H](C(=O)N[C@@H](CC(N)=O)C(=O)N[C@@H](CC(N)=O)C(N)=O)NC(=O)C(C)(C)NC(=O)[C@H](Cc3ccc4ccccc4c3)NC2=O)cc1 [compound 43] ([Ahx]NTWQAY(Me)[2Nal][Aib]DNN-NH2; lactam N-10)	1.44
COc1ccc(C[C@@H]2NC(=O)[C@H](C)NC(=O)[C@H](CCC(N)=O)NC(=O)[C@H](Cc3c[nH]c4ccccc34)NC(=O)[C@H](CCCNC(=N)N)NC(=O)[C@H](CC(N)=O)NC(=O)[C@H](NC(C)=O)CCCCNC(=O)C[C@@H](C(=O)N[C@@H](CC(N)=O)C(=O)N[C@@H](CC(N)=O)C(N)=O)NC(=O)C(C)(C)NC(=O)[C@H](Cc3ccc4ccccc4c3)NC2=O)cc1 [compound 46] (Ac-[dK]NRWQAY(Me)[2Nal][Aib]DNN-NH2; lactam 1-10)	1.38
CC(=O)N[C@H]1CC(=O)NCCC[C@@H](C(=O)N[C@@H](CC(N)=O)C(=O)N[C@@H](CC(N)=O)C(N)=O)NC(=O)C(C)(C)NC(=O)[C@H](Cc2ccc3ccccc3c2)NC(=O)[C@H](Cc2ccc(O)cc2)NC(=O)[C@H](CCCNC(=N)N)NC(=O)[C@H](CCC(N)=O)NC(=O)[C@H](Cc2cn(C)c3ccccc23)NC(=O)[C@H]([C@@H](C)O)NC(=O)[C@H](CC(N)=O)NC1=O [compound 33] (Ac-DNT[Trp(1-Me)]QRY[2Nal][Aib][Orn]NN-NH2; lactam 1-10)	3.36
COc1ccc(C[C@@H]2NC(=O)[C@H](CCCNC(=N)N)NC(=O)[C@H](CCC(N)=O)NC(=O)[C@H](Cc3cn(C)c4ccccc34)NC(=O)[C@H]([C@@H](C)O)NC(=O)[C@H](CC(N)=O)NC(=O)[C@@H](NC(C)=O)CC(=O)NCCC[C@@H](C(=O)N[C@@H](CC(N)=O)C(=O)N[C@@H](CC(N)=O)C(N)=O)NC(=O)[C@H](CC(C)C)NC(=O)[C@H](Cc3ccc4ccccc4c3)NC2=O)cc1 [compound 37] (Ac-DNT[Trp(1-Me)]QRY(Me)[2Nal]L[Orn]NN-NH2; lactam 1-10)	3.57
COc1ccc(C[C@@H]2NC(=O)[C@H](CCCNC(=N)N)NC(=O)[C@H](CCC(N)=O)NC(=O)[C@H](Cc3c[nH]c4ccccc34)NC(=O)[C@H]([C@@H](C)O)NC(=O)[C@H](CC(N)=O)NC(=O)[C@H](NC(C)=O)CCCNC(=O)CC[C@@H](C(=O)N[C@@H](CC(N)=O)C(=O)N[C@@H](CC(N)=O)C(N)=O)NC(=O)C(C)(C)NC(=O)[C@H](Cc3cccc4ccccc34)NC2=O)cc1 [compound 22] (Ac-[dOrn]NTWQRY(Me)[1Nal][Aib]ENN-NH2; lactam 1-10)	48.4
COc1ccc(C[C@@H]2NC(=O)[C@H](CCCNC(=N)N)NC(=O)[C@H](CCC(N)=O)NC(=O)[C@H](Cc3cn(C)c4ccccc34)NC(=O)[C@H]([C@@H](C)O)NC(=O)[C@H](CC(N)=O)NC(=O)[C@@H](NC(C)=O)CC(=O)NCCC[C@@H](C(=O)N[C@@H](CC(N)=O)C(=O)N[C@@H](CC(N)=O)C(N)=O)NC(=O)C(C)(C)NC(=O)[C@H](Cc3c[nH]c4ccccc34)NC2=O)cc1 [compound 36] (Ac-DNT[Trp(1-Me)]QRY(Me)W[Aib][Orn]NN-NH2; lactam 1-10)	19.5
COc1ccc(C[C@@H]2NC(=O)[C@H](C)NC(=O)[C@H](CCC(N)=O)NC(=O)[C@H](Cc3c[nH]c4ccccc34)NC(=O)[C@H]([C@@H](C)O)NC(=O)[C@H](CC(N)=O)NC(=O)[C@H](NC(C)=O)CCCCNC(=O)C[C@@H](C(=O)N[C@@H](C)C(=O)N[C@@H](C)C(N)=O)NC(=O)C(C)(C)NC(=O)[C@H](Cc3ccc4ccccc4c3)NC2=O)cc1 [compound 50] (Ac-[dK]NTWQAY(Me)[2Nal][Aib]DAA-NH2; lactam 1-10)	8.29

molecular target: T2, IL-23 receptor on the surface of …; test: cell-based or functional assay; settings: not given

Molecule	Inhibition of IL-23 induced pSTAT3 (IC50 nM) [nM]
B1	334
